Reference: US20230293562A1, “[…] COMBINATION OF GALNAC-OLIGO[…] AND SAPONIN, AND USES THEREOF” (SAPREME TECHNOLOGIES B.V., priority 2020, published 2023)
[BNANC] = BNA^NC bridged nucleic acid nucleoside; {ThiolC6} = thiol C6 linker; d = 2'-deoxy (DNA)

Legend:
Assay type in all cases: cell-based
ApoB [1] = test: ApoB RNA expression analysis in human primary hepatocytes; conditions: read-out: IC50 ApoB gene silencing
Method: (§1) ApoBBNA (ApoBBNA#01, targeting human ApoB mRNA) was conjugated to trivalent-GalNAc ((GalNAc)3) (FIG. 6) and primary hepatocytes (ASGPR1^+) cells were treated with a range of concentrations of (GalNAc)3-ApoBBNA#01 with and without addition of 2000 nM SO1861. ApoB gene silencing in primary hepatocytes (ASGPR1^+) cells was determined.
(§2) ApoB gene silencing in primary hepatocytes (ASGPR1^+) cells was determined. […] The dotted line in the ApoBBNA#02 RNAiMAX indicates concentrations at which toxicity and cell death occurs.
(§3) RNA from cells was isolated using TRI Reagent® Solution (Thermo Scientific) according to the manufacturer’s instruction. Conversion into cDNA was performed using iScript™ cDNA Synthesis Kit (BioRad) using standard protocols. ApoB expression levels and levels of specific hepatocyte housekeeping genes were determined using quantitative real-time PCR assays (qRT-PCR) using iTaq™ Universal SYBR® Green Supermix (BioRad) and the Light Cycler 480 (Roche Diagnostics, Rotkreuz, Switzerland) with specific DNA primers, listed in Table A4 (murine) and Table A2 (human). Analysis was done by the ΔCt method to determine ApoB expression relative to 2 hepatocyte-specific housekeeping control mRNAs. Each analysis reaction was performed in triplicate.

ApoB [2] = test: ApoB RNA expression analysis (qPCR) in mouse primary hepatocytes; conditions: 72 hrs incubation
Method: as §3
Cryopreserved primary mouse hepatocytes ([…] Cell Culture Technology GmbH, Germany) were thawed in hepatocyte thawing media (HTM, […] Cell Culture Technology GmbH, Germany) and washed 1x with hepatocyte wash media (HWM, […] Cell Culture Technology GmbH, Germany). Cells were re-suspended in hepatocyte plating media (HPM Cryo, […] Cell Culture Technology GmbH, Germany) at a density of approx. 0.275 × 10^6 cells/ml. […] Plating medium was replaced by 315 µl or 108 µl assay media (MHM, […] Cell Culture Technology GmbH, Germany), after which conjugates were added from a 10x concentrated stock solution in PBS.

[3] = tested on: human primary hepatocytes (ASGPR1+); test: Cell viability assay on human primary hepatocytes; conditions: + RNAiMAX
Method: as §1, §2
Briefly, the MTS solution was diluted 20× in DMEM without phenol red (PAN-Biotech GmbH) supplemented with 10% FBS. The cells were washed once with 200 µL/PBS well, after which 100 µL diluted MTS solution was added/well. The plate was incubated for approximately 20-30 minutes at 37° C. Subsequently, the OD at 492 nm was measured on a Thermo Scientific Multiskan FC plate reader (Thermo Scientific).

ApoBBNA#02: murine and human sequence-compatible ApoB BNA^NC oligonucleotide 5′-GCattggtatTCA-3′ [SEQ ID NO: 12], fully phosphorothioated (antisense GCATTGGTATTCA; sugars from the 5' end [BNANC]2 d8 [BNANC]3, all phosphorothioate, 5' {ThiolC6}, methylation of C not given here)
IC50 (ApoB [1]; RNAiMAX transfection): 0.005 µM | IC50 (ApoB [1]; alone, without SO1861-EMCH): 0.2 µM | fold less potent in ApoB RNA downmodulation than (GalNAc)3-ApoB#02 BNA + 2000 nM SO1861-EMCH (ApoB [2]): 100 - 667 fold | IC50 (ApoB [2]; alone, without SO1861-EMCH, read-out: IC50 ApoB RNA expression inhibition): 0.02 µM | IC50 [3]: 0.1 µM
